{"source": "paper PMC10794144", "about": "“A novel antibiotic class targeting the lipopolysaccharide transporter” (Nature, 2024)", "key": {"K. pneumoniae": {"test_system": "K. pneumoniae", "experiment": "MIC versus efflux impaired strains", "assay_type": "cell-based, Klebsiella pneumoniae", "procedure": "(§1) MIC determinations were performed using the broth microdilution method and in line with CLSI guidelines M07 and M100 (refs. [37],[38]). Bacterial inocula were prepared by diluting a 0.5 McFarland suspension in CAMHB or lysogeny broth (LB) specifically for A. baylyi isolates. […] MIC values of all of the tested antibiotics were read as the lowest compound concentration inhibiting bacterial growth by naked eye or beyond which the OD600 ceased to decrease."}, "E. coli": {"test_system": "E. coli", "experiment": "MIC versus efflux impaired and porin deficient strains", "assay_type": "cell-based", "conditions": "Escherichia coli", "procedure": "as §1"}, "E. coli LptB2FGC": {"molecular_target": "T1, E. coli LptB2FGC (Escherichia coli, UniProt P0ADC6+P0AF98)", "T1 construct": "made in house; host or cells: E. coli C43(λDE3)", "T1 sequence (P0AF98 whole entry)": "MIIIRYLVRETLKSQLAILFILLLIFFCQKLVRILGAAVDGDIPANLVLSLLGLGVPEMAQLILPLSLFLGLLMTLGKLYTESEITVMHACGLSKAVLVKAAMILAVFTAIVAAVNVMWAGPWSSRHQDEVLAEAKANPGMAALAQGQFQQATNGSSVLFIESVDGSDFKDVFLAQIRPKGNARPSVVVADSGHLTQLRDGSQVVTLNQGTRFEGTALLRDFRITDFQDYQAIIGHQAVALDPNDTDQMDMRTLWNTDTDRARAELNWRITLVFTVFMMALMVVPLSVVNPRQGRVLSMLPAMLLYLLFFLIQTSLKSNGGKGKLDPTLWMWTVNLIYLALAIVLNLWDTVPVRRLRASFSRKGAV", "T1 sequence (P0ADC6 whole entry)": "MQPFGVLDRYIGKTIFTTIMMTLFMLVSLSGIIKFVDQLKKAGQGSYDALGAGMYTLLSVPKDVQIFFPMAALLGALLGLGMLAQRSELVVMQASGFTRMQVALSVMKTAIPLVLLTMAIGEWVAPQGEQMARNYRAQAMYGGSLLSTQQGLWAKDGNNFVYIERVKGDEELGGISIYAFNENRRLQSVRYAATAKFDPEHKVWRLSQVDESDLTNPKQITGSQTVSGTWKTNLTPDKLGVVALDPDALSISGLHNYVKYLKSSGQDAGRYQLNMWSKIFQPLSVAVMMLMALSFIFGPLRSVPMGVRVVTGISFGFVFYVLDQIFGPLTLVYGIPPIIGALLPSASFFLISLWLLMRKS", "T1 sequence (P0A9V1 whole entry partner)": "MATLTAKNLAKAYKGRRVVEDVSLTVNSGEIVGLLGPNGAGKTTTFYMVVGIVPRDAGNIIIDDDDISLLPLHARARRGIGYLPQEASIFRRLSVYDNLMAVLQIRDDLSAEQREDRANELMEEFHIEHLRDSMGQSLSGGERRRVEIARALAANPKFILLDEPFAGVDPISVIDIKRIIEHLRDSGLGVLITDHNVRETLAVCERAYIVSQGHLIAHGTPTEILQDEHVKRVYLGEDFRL", "T1 sequence (P0ADV9 whole entry partner)": "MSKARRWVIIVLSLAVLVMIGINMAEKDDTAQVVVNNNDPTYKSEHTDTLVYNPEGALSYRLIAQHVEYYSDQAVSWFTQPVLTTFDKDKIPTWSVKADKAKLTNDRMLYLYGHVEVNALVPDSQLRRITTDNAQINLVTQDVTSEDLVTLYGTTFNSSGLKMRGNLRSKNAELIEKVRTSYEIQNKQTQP", "experiment": "LPS-release assay, proteoliposomes to LptA", "assay_type": "biochemical", "conditions": "E. coli LptB2FGC proteins", "procedure": "The levels of release of LPS from proteoliposomes to LptA were measured as previously described. Assays used 60% proteoliposomes (by volume) in a solution containing 50 mM Tris-HCl (pH 8.0), 500 mM NaCl, 10% glycerol and 2 µM LptA^I36pBPA. Reaction mixtures were incubated with drug for 10 min at room temperature, as applicable. Reactions were then initiated by the addition of ATP and MgCl2 (final concentrations of 5 mM and 2 mM, respectively) and proceeded at 30 °C. Aliquots (25 µl) were removed from the reaction mixtures and irradiated with ultraviolet light (365 nm) on ice for 10 min using a B-100AP lamp (Thermo Fisher Scientific). After ultraviolet irradiation, 25 µl 2× SDS–PAGE sample loading buffer was added, the samples were boiled for 10 min and proteins were separated using Tris-HCl 4–20% polyacrylamide gradient gels with Tris-glycine running buffer. Immunoblotting was conducted as described above."}, "A. baumannii ACC01073 [1]": {"test_system": "A. baumannii ACC01073", "experiment": "Time–kill kinetics", "assay_type": "cell-based, Acinetobacter baumannii", "procedure": "Time–kill studies were performed according to the CLSI standard procedure M26-A[40]. […] A. baumannii colonies from agar plates were inoculated into CAMHB supplemented with 20% human serum and incubated overnight at 35 ± 2 °C in ambient air under shaking. The overnight culture was diluted 1:10,000 and further incubated for 2 h. A total of 5 ml of the bacterial log-phase suspension was transferred into six-well plates. […] The six-well plates were incubated at 35 ± 2 °C in ambient air under shaking (100 rpm) for 24 h, 150 μl was withdrawn at the selected timepoints (0, 2, 4, 8, 12, 16, 20 and 24 h), diluted, plated on a Mueller–Hinton agar plate and incubated overnight for CFU determination. GraphPad Prism v.8 was used for graphical presentation of the data."}, "A. baumannii ACC01073 [2]": {"test_system": "A. baumannii ACC01073", "experiment": "Neutropaenic mouse lung infection (pneumonia) model", "assay_type": "in vivo", "conditions": "for CFU/lungs, average / Log CFU/lungs, average (bacterial load): n = 6", "procedure": "An intramuscular inoculation of a bacterial suspension of approximately 10^6 CFU per thigh was used to induce the infection. Treatment started 2 h after infection. […] Thigh bacterial burden was determined after 24 h of treatment. In the pneumonia model, an intratracheal inoculation of approximately 10^7 CFU per lung was used to induce the infection. Treatment started 2 h after infection. […] Lung bacterial burden was determined after 24 h treatment. Standard of care antibiotic was tested at a single dose in both infection models. GraphPad Prism 8 was used for graphical presentation and to analyse data."}}, "note": "Read-outs that look alike come from different tables or passages of the source."}
{"smiles": "CN1C(=O)[C@H](CCCCN)NC(=O)[C@H](CCCN)NCc2cccnc2Sc2c(Cl)ccc(Cl)c2CNC(=O)[C@@H]1Cc1c[nH]c2ccccc12", "note": "[RO7075573]", "values": [{"measurement": "MIC", "setting": "K. pneumoniae; K. pneumoniae 1161486a, efflux impaired, Δ acrAB", "value": ">64", "unit": "µg/mL"}, {"measurement": "MIC", "setting": "K. pneumoniae; Klebsiella pneumoniae, K. pneumoniae 1161486, WT, read-out: MIC", "value": "> 64", "unit": "µg/mL"}, {"measurement": "MIC", "setting": "E. coli; E. coli 7623, WT, CAMHB, 100% inhibition, n = 1", "value": "> 64", "unit": "µg/mL"}, {"measurement": "MIC", "setting": "E. coli; E. coli 7623-, efflux impaired, Δ tolC", "value": 32, "unit": "µg/mL"}, {"measurement": "MIC", "setting": "E. coli; E. coli R1535, porin deficient, Δ (OmpC; OmpF)", "value": "> 64", "unit": "µg/mL"}]}
{"smiles": "CN1C(=O)[C@H](CCCCN)NC(=O)[C@H](CCCN)NCc2cccnc2Sc2cccc(-c3ccc(C(=O)O)cc3)c2CNC(=O)[C@@H]1Cc1c[nH]c2ccccc12", "note": "[zosurabalpin]", "values": [{"measurement": "LPS extraction to LptA", "setting": "E. coli LptB2FGC", "value": "no effect on LPS extraction"}, {"measurement": "Time–kill outcome", "setting": "A. baumannii ACC01073 [1]", "value": "bactericidal effect above 4× MIC"}, {"measurement": "ΔLog CFU/lungs vs A/0h", "setting": "A. baumannii ACC01073 [2]; 6 mg/kg/day s.c. q6h, 24 h", "value": 1.37}, {"measurement": "CFU/lungs, average", "setting": "A. baumannii ACC01073 [2]; 6 mg/kg/day s.c. q6h, 24 h", "value": "1.26E+09"}, {"measurement": "Log CFU/lungs, average (bacterial load)", "setting": "A. baumannii ACC01073 [2]; 6 mg/kg/day s.c. q6h, 24 h", "value": 9.06}, {"measurement": "ΔLog CFU/lungs vs A/0h", "setting": "A. baumannii ACC01073 [2]; 20 mg/kg/day q6h", "value": 1.47}, {"measurement": "CFU/lungs, average", "setting": "A. baumannii ACC01073 [2]; 20 mg/kg/day q6h", "value": "1.49E+09"}, {"measurement": "Log CFU/lungs, average (bacterial load)", "setting": "A. baumannii ACC01073 [2]; 20 mg/kg/day q6h", "value": 9.16}, {"measurement": "ΔLog CFU/lungs vs A/0h", "setting": "A. baumannii ACC01073 [2]; 60 mg/kg/day q6h", "value": 1.13}, {"measurement": "CFU/lungs, average", "setting": "A. baumannii ACC01073 [2]; 60 mg/kg/day q6h", "value": "8.46E+08"}, {"measurement": "Log CFU/lungs, average (bacterial load)", "setting": "A. baumannii ACC01073 [2]; 60 mg/kg/day q6h", "value": 8.82}, {"measurement": "ΔLog CFU/lungs vs A/0h", "setting": "A. baumannii ACC01073 [2]; 100 mg/kg/day q6h", "value": -0.05}, {"measurement": "CFU/lungs, average", "setting": "A. baumannii ACC01073 [2]; 100 mg/kg/day q6h", "value": "1.38E+08"}, {"measurement": "Log CFU/lungs, average (bacterial load)", "setting": "A. baumannii ACC01073 [2]; 100 mg/kg/day q6h", "value": 7.64}, {"measurement": "ΔLog CFU/lungs vs A/0h", "setting": "A. baumannii ACC01073 [2]; 160 mg/kg/day q6h", "value": -1.08}, {"measurement": "CFU/lungs, average", "setting": "A. baumannii ACC01073 [2]; 160 mg/kg/day q6h", "value": "9.40E+06"}, {"measurement": "Log CFU/lungs, average (bacterial load)", "setting": "A. baumannii ACC01073 [2]; 160 mg/kg/day q6h", "value": 6.61}, {"measurement": "ΔLog CFU/lungs vs A/0h", "setting": "A. baumannii ACC01073 [2]; 240 mg/kg/day q6h", "value": -2.52}, {"measurement": "CFU/lungs, average", "setting": "A. baumannii ACC01073 [2]; 240 mg/kg/day q6h", "value": "4.14E+05"}, {"measurement": "Log CFU/lungs, average (bacterial load)", "setting": "A. baumannii ACC01073 [2]; 240 mg/kg/day q6h", "value": 5.17}, {"measurement": "Reduction in CFUs in lungs", "setting": "A. baumannii ACC01073 [2]; 360 mg per kg per day", "value": "> 5", "unit": "log"}, {"measurement": "ΔLog CFU/lungs vs A/0h", "setting": "A. baumannii ACC01073 [2]; 360 mg/kg/day q6h", "value": -4.81}, {"measurement": "CFU/lungs, average", "setting": "A. baumannii ACC01073 [2]; 360 mg/kg/day q6h", "value": "9.88E+02"}, {"measurement": "Log CFU/lungs, average (bacterial load)", "setting": "A. baumannii ACC01073 [2]; 360 mg/kg/day q6h", "value": 2.88}]}
